Experimental data as given in ChEMBL document CHEMBL1201862, “PubChem BioAssay data set” (2004).
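How tested: cells in 96-well plates exposed to compound for 48 hours at five concentrations. GI50: concentration for 50% inhibition of growth.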 Activity calls are given as the source filed them. No stated cut-off is given here; in the data, active = GI50 up to about 1.1 µM and inactive = higher.

How the values were obtained:
Assay in all cases: NCI tumour cell line growth inhibition, 48 h
SK-OV-3 = system: SK-OV-3
T47D = system: T47D
HCC 2998 = system: HCC 2998
SN12C = system: SN12C
Malme-3M = system: Malme-3M
SK-MEL-28 = system: SK-MEL-28
HCT-15 = system: HCT-15
A498 = system: A498
HL-60 = system: HL-60
PC-3 = system: PC-3
KM12 = system: KM12
NCI-H226 = system: NCI-H226
CAKI-1 = system: CAKI-1
MOLT-4 = system: MOLT-4
786-0 = system: 786-0
SF-268 = system: SF-268
SK-MEL-5 = system: SK-MEL-5
NCI-H460 = system: NCI-H460
DMS-114 = system: DMS-114
RXF 393 = system: RXF 393

Cc1c(C)c(CC(=O)N2CC2)c(C)c(C)c1CC(=O)N1CC1
GI50 (SK-OV-3): 16.8 µM (inactive)
GI50 (T47D): 6.61 µM (inactive)
GI50 (HCC 2998): 11.4 µM (inactive)
GI50 (SN12C): 4.03 µM (inactive)
GI50 (Malme-3M): 12.1 µM (inactive)
GI50 (SK-MEL-28): 17 µM (inactive)
GI50 (HCT-15): 16.8 µM
GI50 (A498): 16 µM (inactive)
GI50 (HL-60): 0.705 µM (active)
GI50 (PC-3): 16 µM (inactive)
GI50 (KM12): 17.1 µM (inactive)
GI50 (NCI-H226): 15.5 µM (inactive)
GI50 (CAKI-1): 2.12 µM (inactive)
GI50 (MOLT-4): 0.441 µM (active)
GI50 (786-0): 3.56 µM (inactive)
GI50 (SF-268): 2.41 µM (inactive)
GI50 (SK-MEL-5): > 10 µM (inactive)
GI50 (NCI-H460): 0.337 µM (active)
GI50 (DMS-114): 11.5 µM (inactive)
GI50 (RXF 393): 3.61 µM (inactive)
